Measurements reported in patent publication US6916933B2, “4-pyridinyl-n-acyl-l-phenylalanines” (Hoffman-La Roche Inc., priority 1999, dated 2005).

Key:
[1] = biological target: T1, cell-surface VLA-4 (α4β1 integrin) on Ramos cells binding to immobilized VCAM-1 (Homo sapiens, UniProt P05556+P13612); assay: Ramos (VLA-4)/VCAM-1 Cell-Based Screening Assay (cell adhesion); details: Calcein-AM labeled Ramos cells, VCAM-1 coated plates
T1 construct: Ramos cells bearing cell-surface VLA-4; endogenous in cells; host or cells: Ramos cells (VLA-4); VCAM-1 partner made in CHO cells
Description: Ramos (VLA-4)/VCAM-1 Cell-Based Screening Assay Protocol
Soluble recombinant human VCAM-1 (mixture of 5- and 7-Ig domain) was purified from CHO cell culture media by immunoaffinity chromatography and maintained in a solution containing 0.1 M Tris-glycine (pH 7.5), 0.1 M NaCl, 5 mM EDTA, 1 mM PMSF, […] NaN3 and 10 μg/mL leupeptin. Calcein-AM was purchased from Molecular Probes Inc.
VLA-4 (α4β1 integrin) antagonist activity, defined as ability to compete with cell-surface VLA-4 for binding to immobilized VCAM-1, was quantitated using a Ramos-VCAM-1 cell adhesion assay. Ramos cells bearing cell-surface VLA-4, were labeled with a fluorescent dye (Calcein-AM) and allowed to bind VCAM-1 in the presence or absence of test compounds. A reduction in fluorescence intensity associated with adherent cells (% inhibition) reflected competitive inhibition of VLA-4 mediated cell adhesion by the test compound.
Initially, this entailed coating 96 well plates (Nunc Maxisorp) with recombinant human VCAM-1 (100 ng in 100 μl PBS), sealing each plate and allowing the plates to stand at 4° C. for ≈18 hr. The VCAM-coated plates were subsequently washed twice with 0.05% Tween-20 in PBS, and then blocked for 1 hr (room temperature) with 200 μl of Blocking Buffer (1% BSA/0.02% thimerosal) to reduce non-specific binding. Following the incubation with Blocking Buffer, plates were inverted, blotted and the remaining buffer aspirated. Each plate was then washed with 300 μl PBS, inverted and the remaining PBS aspirated.
Test compounds were dissolved in 100% DMSO and then diluted 1:25 in VCAM Cell Adhesion Assay Buffer (4 mM CaCl2, 4 mM MgCl2 in 50 mM TRIS-HCl, pH 7.5) (final DMSO=4%). A series of eight 1:4 dilutions were performed for each compound (general concentration range of 1 nM-12,500 nM). 100 μl/well of each dilution was added to the VCAM-coated plates, followed by 100 μl of Ramos cells (200,000 cells/well in 1% BSA/PBS). Plates containing test compounds and Ramos cells were allowed to incubate for 45 min at room temperature, after which 165 μl/well PBS was added. Plates were inverted to remove non-adherent cells, blotted and 300 μL/well PBS added. Plates were again inverted, blotted and the remaining buffer gently aspirated. 100 μl Lysis Buffer (0.1% SDS in 50 mM TRIS-HCl, pH 8.5) was added to each well and agitated for 2 min on a rotary shaking platform. The plates were then read for fluorescence intensity on a Cytofluor 2300 (Millipore) fluorecence measurement system (excitation=485 nm, emission=530 nm).
The results are provided in the following Table II (A=IC50<100 nM, B=IC50<10000 nM, C=IC50<5,000 nM): […]

[2] = biological target: T2, VLA-4 (α4β1 integrin) binding to immobilized VCAM-1 (Homo sapiens, UniProt P05556+P13612); assay: VLA-4/VCAM-1 Screening Assay (solid-phase, dual antibody ELISA); details: Ramos cell-derived VLA-4, recombinant human VCAM-1 coated plates, 1 mM MnCl2
T2 construct: followed by 10 μl of Ramos cell-derived VLA-4; endogenous in cells; host or cells: Ramos cells (VLA-4 preparation derived from the cells)
Description: VLA-4/VCAM-1 Screening Assay
VLA-4 antagonist activity, defined as ability to compete for binding to immobilized VCAM-1, was quantitated using a solid-phase, dual antibody ELISA. VLA-4 (α4β1 integrin) bound to VCAM-1 was detected by a complex of anti-integrin β1 antibody: HRP-conjugated anti-mouse IgG: chromogenic substrate (K-Blue). Initially, this entailed coating 96 well plates (Nunc Maxisorp) with recombinant human VCAM-1 (0.4 μg in 100 μl PBS), sealing each plate and then allowing the plates to stand at 4° C. for ^˜18 hr. […] On the day of assay, all plates were washed twice with VCAM Assay Buffer (200 μl/well of 50 mM Tris-HCl, 100 mM NaCl, 1 mM MnCl2, 0.05% Tween 20; pH 7.4). Test compounds were dissolved in 100% DMSO and then diluted 1:20 in VCAM Assay Buffer supplemented with 1 mg/mL BSA (i.e., final DMSO=5%). A series of 1:4 dilutions were performed to achieve a concentration range of 0.005 nM-1.563 μM for each test compound. 100 μl per well of each dilution was added to the VCAM-coated plates, followed by 10 μl of Ramos cell-derived VLA-4. These plates were sequentially mixed on a platform shaker for 1 min, incubated for 2 hr at 37° C., and then washed four times with 200 μl/well VCAM Assay Buffer. 100 μl of mouse anti-human integrin β1 antibody was added to each well (0.6 μg/mL in VCAM Assay Buffer+1 mg/mL BSA) and allowed to incubate for 1 hr at 37° C. At the conclusion of this incubation period, all plates were washed four times with VCAM Assay Buffer (200 μl/well). A corresponding second antibody, HRP-conjugated goat anti-mouse IgG (100 μl per well @ 1:800 dilution in VCAM Assay Buffer+1 mg/mL BSA), was then added to each well, followed by a 1 hr incubation at room temperature and concluded by three washes (200 μl/well) with VCAM Assay Buffer. Color development was initiated by addition of 100 μl K-Blue per well (15 min incubation, room temp) and terminated by addition of 100 μl Red Stop Buffer per well. All plates were then read in a UV/V is spectrophotometer at 650 nM. Results were calculated as % inhibition of total binding (i.e., VLA-4+VCAM-1 in the absence of test compound).
The results are provided in the following Table I (A=IC50<1 nM, B=IC50<10 nM): […]

T1 sequence (P13612 34-1032): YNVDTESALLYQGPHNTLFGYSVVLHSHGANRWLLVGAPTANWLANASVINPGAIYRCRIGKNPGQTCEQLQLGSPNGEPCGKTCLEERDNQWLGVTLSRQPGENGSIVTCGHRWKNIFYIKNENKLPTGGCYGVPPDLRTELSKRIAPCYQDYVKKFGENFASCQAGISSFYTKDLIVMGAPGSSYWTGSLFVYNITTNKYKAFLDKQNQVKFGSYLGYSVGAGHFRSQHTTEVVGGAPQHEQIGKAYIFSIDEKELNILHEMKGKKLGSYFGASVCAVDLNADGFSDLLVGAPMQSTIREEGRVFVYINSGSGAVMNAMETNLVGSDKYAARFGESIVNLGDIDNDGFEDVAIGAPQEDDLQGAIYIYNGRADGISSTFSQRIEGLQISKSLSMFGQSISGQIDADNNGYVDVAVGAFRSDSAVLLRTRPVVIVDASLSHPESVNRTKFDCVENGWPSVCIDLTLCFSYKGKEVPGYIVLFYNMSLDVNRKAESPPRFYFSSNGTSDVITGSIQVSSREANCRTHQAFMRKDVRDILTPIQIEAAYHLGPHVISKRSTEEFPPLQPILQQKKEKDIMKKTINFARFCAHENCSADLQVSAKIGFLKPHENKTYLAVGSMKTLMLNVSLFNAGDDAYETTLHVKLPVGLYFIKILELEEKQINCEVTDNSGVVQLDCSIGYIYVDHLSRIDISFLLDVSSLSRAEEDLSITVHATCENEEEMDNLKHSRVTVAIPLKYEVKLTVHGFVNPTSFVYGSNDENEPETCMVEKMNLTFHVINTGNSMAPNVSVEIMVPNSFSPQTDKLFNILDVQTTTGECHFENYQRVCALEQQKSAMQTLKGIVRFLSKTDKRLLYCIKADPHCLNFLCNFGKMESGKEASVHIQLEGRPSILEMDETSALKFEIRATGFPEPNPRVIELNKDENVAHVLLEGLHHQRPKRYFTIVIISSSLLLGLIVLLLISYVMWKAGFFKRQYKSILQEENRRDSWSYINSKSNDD
T1 sequence (P05556 21-798): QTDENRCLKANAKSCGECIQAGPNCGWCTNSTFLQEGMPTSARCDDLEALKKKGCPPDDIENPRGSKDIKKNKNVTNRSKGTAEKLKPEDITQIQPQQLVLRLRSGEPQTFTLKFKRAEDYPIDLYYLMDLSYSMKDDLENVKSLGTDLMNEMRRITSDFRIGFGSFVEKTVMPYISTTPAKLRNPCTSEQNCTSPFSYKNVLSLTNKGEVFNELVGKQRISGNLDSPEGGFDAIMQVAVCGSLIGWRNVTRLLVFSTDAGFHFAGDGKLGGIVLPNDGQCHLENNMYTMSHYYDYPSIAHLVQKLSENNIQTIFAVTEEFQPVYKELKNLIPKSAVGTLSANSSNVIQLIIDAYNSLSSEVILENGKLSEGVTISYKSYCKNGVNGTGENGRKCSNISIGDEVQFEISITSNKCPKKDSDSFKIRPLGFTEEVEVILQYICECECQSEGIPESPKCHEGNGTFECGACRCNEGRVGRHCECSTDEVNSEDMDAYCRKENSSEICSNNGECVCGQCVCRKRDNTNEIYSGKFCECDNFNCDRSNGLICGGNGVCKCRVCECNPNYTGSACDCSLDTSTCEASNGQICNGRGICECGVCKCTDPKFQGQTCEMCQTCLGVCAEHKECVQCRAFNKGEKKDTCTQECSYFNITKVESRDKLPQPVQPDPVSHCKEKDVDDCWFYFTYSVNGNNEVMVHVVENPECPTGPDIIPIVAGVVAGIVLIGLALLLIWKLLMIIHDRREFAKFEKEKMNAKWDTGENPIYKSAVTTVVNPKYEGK
T2 sequence (P13612 34-1032): as the sequence (P13612 34-1032) above
T2 sequence (P05556 21-798): as the sequence (P05556 21-798) above

| IC50 [1] [nM] | IC50 [2] [nM] | Compound |
| --- | --- | --- |
| < 10000 | < 1 | Cc1cccc(Cl)c1C(=O)N[C@@H](Cc1ccc(-c2cc(Cl)cn(C)c2=O)cc1)C(=O)O [Example 8, N-[(2-chloro-6-methylphenyl)carbonyl]-4-(5-chloro-1-methyl-2-oxo-3-pyridinyl)-L-phenylalanine] |
| < 10000 | < 10 | COCCC1(C(=O)N[C@@H](Cc2ccc(-c3cc(Cl)cn(C)c3=O)cc2)C(=O)O)CCCC1 [Example 10, 4-(5-chloro-1-methyl-2-oxo-3-pyridinyl)-N-[[1-(2-methoxyethyl)cyclopentyl]carbonyl]-L-phenylalanine] |
| < 5000 | < 10 | Cc1cccc(Cl)c1C(=O)N[C@@H](Cc1ccc(-c2cc(Cl)cn(Cc3ccccc3)c2=O)cc1)C(=O)O [Example 15, 4-(1-Benzyl-5-chloro-2-oxo-3-pyridinyl)-N-[(2-chloro-6-methylphenyl)carbonyl]-L-phenylalanine] |
|  | < 10 | COCCC1(C(=O)N[C@@H](Cc2ccc(-c3cc(Cl)cn(Cc4ccccc4)c3=O)cc2)C(=O)O)CCCC1 [Example 17, 4-(1-Benzyl-5-chloro-2-oxo-3-pyridinyl)-N-[[1-(2-methoxyethyl)cyclopentyl]carbonyl]-L-phenylalanine] |
| < 10000 | < 1 | COc1ccc(Br)c(C(=O)N[C@@H](Cc2ccc(-c3cccn(C)c3=O)cc2)C(=O)O)c1 [Example 24, N-[(2-bromo-5-methoxyphenyl)carbonyl]-4-(1-methyl-2-oxo-3-pyridinyl)-L-phenylalanine] |
| < 5000 | < 1 | COc1ccc(Br)c(C(=O)N[C@@H](Cc2ccc(-c3cc(Br)cn(C)c3=O)cc2)C(=O)O)c1 [Example 28, N-[(2-bromo-5-methoxyphenyl)carbonyl]-4-(5-bromo-1-methyl-2-oxo-3-pyridinyl)-L-phenylalanine] |
